The source of these data is US20120100990A1, “4 -AMINOPICOLINATES AND THEIR USE AS HERBICIDES” (SYNGENTA CROP PROTECTION LLC, priority 2009, published 2012).

What all share (assay type): in vivo
Test [1] deals with Setaria faberi (SETFA). Description: Pre-emergence biological efficacy, glasshouse pot test. Particulars: 312 h, 1,000 g/ha, evaluated after 13 days, 100=total damage, 0=no damage, read-out: Percentage damage caused to weed species, pre-emergence, SETFA. A digest of the protocol: (§1)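 Plants treated pre-emergence received 1000 or 250 g/ha in an acetone/water (50:50) vehicle containing 0.5% Tween 20 and were kept in a glasshouse at 24/16 °C with 14 h light. Injury was rated on day 13, where 100 meant total damage.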

Test [2] deals with Solanum nigrum (SOLNI). Described as above. Particulars: 312 h, 1,000 g/ha, evaluated after 13 days, 100=total damage, 0=no damage, read-out: Percentage damage caused to weed species, pre-emergence, SOLNI. A digest of the protocol:
as §1

In test [3] the test system is Ipomea hederaceae (IPOHE). The description is as above. Particulars: Ipomoea hederacea, 312 h, 1,000 g/ha, evaluated after 13 days, 100=total damage, 0=no damage, read-out: Percentage damage caused to weed species, pre-emergence, IPOHE. A digest of the protocol:
as §1

The test system of test [4] is Echinochloa crus-galli (ECHCG). The description is as above. Conditions: 312 h, 1,000 g/ha, evaluated after 13 days, 100=total damage, 0=no damage, read-out: Percentage damage caused to weed species, pre-emergence, ECHCG. An outline of the steps:
as §1

The test system of test [5] is Amaranthus retroflexus (AMARE). The test is described as above. Conditions: 312 h, 1,000 g/ha, evaluated after 13 days, 100=total damage, 0=no damage, read-out: Percentage damage caused to weed species, pre-emergence, AMARE. An outline of the steps:
as §1

In test [6] the test system is Alopecurus myosuroides (ALOMY). Described as above. Conditions: 312 h, 1,000 g/ha, evaluated after 13 days, 100=total damage, 0=no damage, read-out: Percentage damage caused to weed species, pre-emergence, ALOMY. An outline of the steps: as §1
The subject of test [7] is Setaria faberi (SETFA). The test can be described thus: Post-emergence biological efficacy, glasshouse pot test. Particulars: 312 h, 1,000 g/ha, evaluated after 13 days, 100=total damage, 0=no damage, read-out: Percentage damage caused to weed species, post-emergence, SETFA. An outline of the steps: (§2)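 Visual damage ratings (100 total kill, 0 no effect) were taken 13 days after spraying. Plants had been grown 8 days from seed before a single application of 1000 or 250 g/ha in aqueous acetone (50:50) containing 0.5% Tween 20.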

Test [8] relates to Solanum nigrum (SOLNI). The test is described as above. Particulars: 312 h, 1,000 g/ha, evaluated after 13 days, 100=total damage, 0=no damage, read-out: Percentage damage caused to weed species, post-emergence, SOLNI. An outline of the steps:
as §2

The test system of test [9] is Ipomea hederaceae (IPOHE). Described as above. Particulars: Ipomoea hederacea, 312 h, 1,000 g/ha, evaluated after 13 days, 100=total damage, 0=no damage, read-out: Percentage damage caused to weed species, post-emergence, IPOHE. An outline of the steps: as §2
Test [10] relates to Echinochloa crus-galli (ECHCG). The test is described as above. Conditions: 312 h, 1,000 g/ha, evaluated after 13 days, 100=total damage, 0=no damage, read-out: Percentage damage caused to weed species, post-emergence, ECHCG. A digest of the protocol:
as §2

Test [11] deals with Amaranthus retroflexus (AMARE). Described as above. Conditions: 312 h, 1,000 g/ha, evaluated after 13 days, 100=total damage, 0=no damage, read-out: Percentage damage caused to weed species, post-emergence, AMARE. An outline of the steps:
as §2

Test [12] relates to Alopecurus myosuroides (ALOMY). The test is described as above. Particulars: 312 h, 1,000 g/ha, evaluated after 13 days, 100=total damage, 0=no damage, read-out: Percentage damage caused to weed species, post-emergence, ALOMY. An outline of the steps: as §2

Turning to `COC(=O)c1nc(Cl)cc(NC[C@@H]2CCCC[C@H]2O)c1Cl` [Compound 68-2, 3,6-Dichloro-pyridine-4-[trans-(2-hydroxycyclohexyl-methyl)-amino]-2-carboxylic acid methyl ester], the pest or weed control at 1000 g/ha turned out to be 80% in test [1]; 100% in test [2]; 90% in [3]; 0% in test [4]; 100% in test [5]; 70% in test [6]. Besides, the pest or weed control at 1000 g/ha in test [7] amounted to 70%; in [8] it was 100%; in test [9] it was 70%; in test [10], 20%; in test [11] it was 100%; in test [12], 40%.
As to `COC(=O)c1nc(Cl)c(F)c(NCc2ccccc2[N+](=O)[O-])c1C` [Compound 15-31, 6-Chloro-5-fluoro-3-methyl-4-[(2-nitrophenyl-methyl)-amino]-pyridine-2-carboxylic acid methyl ester], the pest or weed control at 1000 g/ha in [1] was found to be 20%; in test [2], 90%; in test [3], 70%; in test [4], 20%; in test [5], 100%; in test [6] it was 20%. In addition, the pest or weed control at 1000 g/ha worked out at 80% in [7]; 100% in test [8]; 70% in [9]; 50% in test [10]; 100% in test [11]; 20% in test [12].
For `COC(=O)c1nc(Cl)c(Cl)c(NCc2ccccc2[N+](=O)[O-])c1C` [Compound 15-43, 5,6-Dichloro-3-methyl-4-[(2-nitrophenyl-methyl)-amino]-pyridine-2-carboxylic acid methyl ester], the pest or weed control at 1000 g/ha in [1] stood at 0%; in test [2] it was 70%; in [3], 50%; in test [4] it was 0%; in test [5], 90%; in test [6] it was 0%. The pest or weed control at 1000 g/ha in [7] was 40%; in [8], 100%; in test [9], 70%; in test [10], 10%; in test [11] it was 100%; in [12] it was 40%.
Regarding `COC(=O)c1nc(Cl)cc(NCc2ccco2)c1C` [Compound 26-19, 6-chloro-4-[(furan-2-ylmethyl)-amino]-3-methyl-pyridine-2-carboxylic acid methyl ester], the pest or weed control at 1000 g/ha is 70% in test [1]; 100% in [2]; 40% in test [3]; 0% in test [4]; 100% in test [5]; 70% in test [6]. The pest or weed control at 1000 g/ha in [7] was 70%; in test [8], 90%; in [9], 40%; in test [10], 30%; in [11] it was 100%; in test [12] it was 60%.
On to `COC(=O)c1nc(Cl)cc(NCc2cc(C)nn2C)c1Cl` [Compound 77-2, 3,6-Dichloro-4-[(1,3-dimethylpyrazol-5-ylmethyl)-amino]-pyridine-2-carboxylic acid methyl ester], for which the pest or weed control at 1000 g/ha in test [1] was 70%; in test [2] it was 100%; in test [3], 90%; in test [4] it was 20%; in [5], 100%; in [6], 60%. The pest or weed control at 1000 g/ha in [7] is 80%; in [8], 100%; in [9], 80%; in test [10], 30%; in test [11], 100%; in test [12], 50%.
For the molecule `C=Cc1c(NCc2ncccc2Cl)cc(Cl)nc1C(=O)OC` [Compound 32-12, 6-Chloro-4-[(3-chloro-pyridin-2-ylmethyl)-amino]-3-ethenyl-pyridine-2-carboxylic acid methyl ester], the pest or weed control at 1000 g/ha in test [1] came out at 80%; in [2], 100%; in test [3], 70%; in test [4] it was 50%; in [5], 100%; in test [6], 70%. Further, the pest or weed control at 1000 g/ha in [7] worked out at 60%; in test [8] it was 90%; in test [9], 50%; in test [10] it was 40%; in test [11], 100%; in [12] it was 50%.
`COC(=O)c1nc(Cl)cc(NCc2ccc(Cl)cc2)c1Cl` [Compound 5-2, 4-[(4-Chlorophenyl-methyl)-amino]-3,6-dichloro-pyridine-2-carboxylic acid methyl ester]: the pest or weed control at 1000 g/ha in test [1] stood at 50%; in test [2], 100%; in [3], 90%; in [4], 10%; in [5] it was 100%; in [6], 20%. In addition, the pest or weed control at 1000 g/ha in [7] came to 70%; in test [8] it was 100%; in test [9], 70%; in [10] it was 50%; in [11] it was 100%; in test [12] it was 50%.
As to `COC(=O)c1nc(Cl)cc(N(CCO)Cc2ccco2)c1Cl` [Compound 66-2, 3,6-Dichloro-4-[N-(furan-2-ylmethyl)-N-(2-hydroxyethyl)-amino]-pyridine-2-carboxylic acid methyl ester], the pest or weed control at 1000 g/ha worked out at 70% in [1]; 100% in test [2]; 100% in test [3]; 50% in [4]; 100% in test [5]; 80% in test [6]. The pest or weed control at 1000 g/ha in test [7] was 0%; in [8] it was 80%; in [9], 60%; in test [10] it was 20%; in test [11] it was 100%; in [12] it was 20%.
